From a melting point compilation (Tetko et al.; mined from patent text by program, amines drawn as free bases though some values may be those of a salt) come the findings set out here.

A word on the melting point: it is the temperature, or range, at which the solid turns liquid. Regarding `O=S(=O)(c1cccs1)N(CC1CC1)c1cccc2cc(-c3ncc(CO)s3)[nH]c12`, the melting point amounted to 174 °C.

`O=C(Nc1ccc(CN2CCCC2)cc1)C1=Cc2cc(-c3ccccc3)ccc2CC1` had a melting point of 186 to 187 °C.

For the compound `CCOC(=O)Cn1c(N)nc(-c2ccccc2)c1-c1ccccc1`, the melting point fell in the range of 173 to 175 °C.

Consider `CC(C)(C)c1c(C(=O)NC2C3CC4CC(C3)CC2C4)cnn1-c1ccc(C(=O)O)cc1` (stereo not drawn), for which the melting point was 309 °C.

For the compound `COc1ccc(C(=O)Cn2cc[nH]c2=O)cc1OC1CCCC1`, the melting point was 201 °C.

In the case of `O=C(Nc1cc(S(=O)(=O)N2CCC(O)C2)sc1Cl)c1cnn2c(C(F)F)cc(-c3ccc(C(F)(F)F)cc3)nc12` (racemic), the melting point is 274 °C.

Regarding `CC(=O)Nc1ccc2cc(S(N)(=O)=O)sc2c1`, the melting point lay in the range of 214 to 217 °C.

For the compound `CCN(CCO)C(=O)C1=C(C(=O)Nc2cc(OC3CCCC3)c(Cl)cc2F)CCCC1`, the melting point was in the range of 132 to 133 °C.

`CCCC1=C(C#N)S(=O)(=O)c2ccc(C(F)(F)F)cc2N1` came in with a melting point of 200 °C.

In turn, `CS(=O)(=O)c1ccc(-c2cnn(Cc3ccccn3)c(=O)c2-c2ccc(F)cc2)cc1` displayed a melting point of 182 to 184 °C.

For the compound `COc1ccc(-c2[nH]nc3c2C(=O)c2c(NC(=O)NNC(=O)c4cccc(N)c4)cccc2-3)cc1`, the melting point is 250 °C.

`CCOC(=O)c1cn(-c2nc(C)ns2)c2cc(F)c(F)cc2c1=O` came in with a melting point of 157 to 159 °C.

As to `CCNC(=O)NC1=C(C(=O)OC)CCNC1=O`, the melting point stood at 103 °C.

The compound `COCCc1nc2c(N)nc3ccccc3c2n1CCCCC(=O)N1CCOCC1` had a melting point of 128 to 129 °C.

For the compound `Cc1cc(Cl)ccc1N1CCCN(CC(C)C)C1=S`, the melting point is 88 to 90 °C.

On to `NC(=O)c1nn(-c2ccccc2)c2ccccc12`, for which the melting point stood at 149 °C.

Consider `ON=c1cc(-c2cn3cccc3cn2)oc2ccc(OCCc3ccc(F)cc3)cc12`, for which the melting point is 248 to 250 °C.

For `C=Cc1ncn(-c2c(Cl)cc(C(F)(F)F)cc2Cl)n1`, the melting point lay within 97 to 99 °C.

For the compound `c1ccc(Sc2ccc(-c3ccc(Sc4ccccc4)cc3)cc2)cc1`, the melting point fell in the range of 116 to 117 °C.

The compound `O=C(O)Cc1ccc2c(c1)[nH]c1ccccc12` had a melting point of 150 to 152 °C.

With `CC(C)c1cc2c(=O)n3cc(C(N)=O)ccc3nc2s1`, the melting point lay in the range of 280 to 282 °C.

For the compound `COc1ccc2cc(-c3ccc(Br)cc3)[nH]c(=O)c2c1`, the melting point is more than 250 °C.

For the compound `Cc1oc2ccc(-n3nnc4cccnc43)cc2c1C`, the melting point fell in the range of 152 to 153 °C.

In turn, `COc1cc(CCCCC#CCCCC#CCO)c(O)c2ccccc12` came in with a melting point of 85 to 87 °C.

As to `COC(=O)c1cc2c(Cl)cc(F)c(-n3c(=O)cc(C(F)(F)F)n(C)c3=O)c2o1`, the melting point was 194 to 196 °C.

As to `Cc1noc(C)c1S(=O)(=O)n1nnc2cc3c(cc21)OC(F)(F)O3`, the melting point was in the range of 120 to 123 °C.

Compound `CC1=NC(=CC(=CN(C)C)c2ccc(C)cc2[N+](=O)[O-])C(=O)O1` registered a melting point of 200 to 201 °C.

On to `O=C(O)CCc1cn(Cc2ccc(OCc3noc(-c4ccccc4)n3)cc2)nc1-c1ccccc1`, for which the melting point is 166 to 167 °C.

The compound `CN1CCC(=C2c3ccccc3C(CO)=C(CO)c3ccccc32)CC1` gave a melting point of 204 to 205 °C.

Consider `FC(F)(F)c1cc(Cl)c(-n2cc(I)nn2)c(Cl)c1`, for which the melting point was 194 to 195 °C.

The compound `Cc1nc(-c2cn(Cc3ccccc3)nn2)sc1C(=O)NCc1cccnc1` returned a melting point of 212 to 213 °C.

Compound `O=C(O)Cc1cccc2c1NC(=O)C2` had a melting point of 234 to 236 °C.

Regarding `COc1ccc(-c2nc3ccccc3n3cncc23)cc1`, the melting point lay in the range of 187 to 188 °C.

The compound `CCN(CC)CCn1c(Cl)c(C(=O)NC)c2ccccc21` came in with a melting point of 103 to 104 °C.

Take `CCC(CC(=O)O)c1ccc(C(=O)OC)cc1` (stereo not drawn): the melting point was in the range of 165 to 166 °C.

On to `COc1ccc(CNC(=O)c2ccc3n2Cc2ccccc2N(C(=O)c2ccc(-c4ccccc4C)c(C)c2)C3)cc1`, for which the melting point fell in the range of 127 to 128 °C.

As to `CN(C)CCOc1ccc2[nH]c(C(=O)N3CC(CCl)c4c3cc(N)c3ccccc43)cc2c1` (stereo not drawn), the melting point is more than 250 °C.

For `OC1CSC(Oc2cc(-c3ccncc3)ccc2Cl)C(O)C1O` (stereo not drawn), the melting point came out at 189 °C.

As to `Cc1cc(=O)c(O)co1`, the melting point was in the range of 152 to 153 °C.

For the compound `CN(C)C=Nc1nc(Cl)c2[nH]cnc2n1`, the melting point came to 300 °C.

In turn, `CC(C)N1C(=O)NC(c2ccc3c(c2)OCO3)c2cc3c(cc21)OCCO3` (stereo not drawn) gave a melting point of 197 to 200 °C.

The compound `COCc1ncccc1CN(CCn1cc(C)c2occc2c1=O)Cc1ccc2c(c1)NC(=O)C(C)(C)C(=O)N2CC(C)C` gave a melting point of 207 to 210 °C.

`CC(=O)c1c(O)cccc1OCC(O)COc1cc(C)ccc1C` (stereo not drawn) gave a melting point of 104 to 106 °C.

Regarding `COC(=O)C1=CSCC1OC` (stereo not drawn), the melting point was 79 to 81 °C.

`CC(CCC(N)=S)N1C(=O)c2ccccc2C1=O` (stereo not drawn) came in with a melting point of 143 to 146 °C.

`O=C(CCCCc1ccccc1)NC(C(=O)Nc1n[nH]c(=S)s1)c1ccccc1` (stereo not drawn) showed a melting point of 210 to 211 °C.

With `CC12CCC3C(CCC4=CC(=O)CCC43CO)C1CCC2O` (stereo not drawn), the melting point lay within 205 to 207 °C.

For `O=[N+]([O-])c1ccc(OS(=O)(=O)C(F)(F)F)c2oc3ccccc3c12`, the melting point lay within 102 to 103 °C.

`O=C1CCCCC1C(=S)Nc1ccc(Cl)cc1F` (stereo not drawn) had a melting point of 97 to 98 °C.

As to `COc1ccc2nc(NC(=O)C(CC3CCCC3)c3ccc(S(=O)(=O)NC4CC4)cc3)sc2n1` (stereo not drawn), the melting point is 235 to 237 °C.

`O=c1oc2ccc(Cl)cc2c(O)c1CCO`: the melting point fell in the range of 185 to 186 °C.

As to `COC(=O)C1CCC2C3CCC4CC(O)C(OC)CC4(C)C3C(=O)CC12C` (stereo not drawn), the melting point lay within 170 to 182 °C.

Take `Oc1cccc(C#Cc2ccc3ccc(Br)cc3n2)c1`: the melting point was 197 to 199 °C.

The compound `CON=C(C)c1ccc(C(=O)Nc2ccc(C(C)(C)C)cc2)cc1` had a melting point of 154 to 155 °C.

With `O=C(O)CCCCCSc1ccc(NS(=O)(=O)c2ccc(Cl)cc2)cc1`, the melting point lay within 160 to 163 °C.

Regarding `CC(=O)Nc1ccc(CCC2(c3ccccc3)CC(O)=CC(=O)O2)cc1` (stereo not drawn), the melting point was in the range of 155 to 160 °C.

Turning to `CNc1nc(=O)n(CCCN2CCN(C(c3ccccc3)c3ccccc3)CC2)c2ccccc12`, the melting point was in the range of 238 to 240 °C.

Regarding `COc1cc2c(cc1Nc1ncc(Cl)c(Nc3ccccc3-n3cccn3)n1)CCN(CC(=O)N(C)C)CC2`, the melting point was 66 to 67 °C.

With `Cn1cc(-c2ccc(Cl)cc2)c(=O)c(-c2cccc(Cl)c2)c1`, the melting point was 170 to 172 °C.

On to `O=Cc1cccc(-c2nnn[nH]2)c1`, for which the melting point was 185 to 189 °C.

On to `CCOC(=O)c1ccc(-c2ccc(OCC(O)CO)c(-c3ccc4c(c3)C(C)(C)CCC4(C)C)c2)cc1` (stereo not drawn), for which the melting point was determined as 56 °C.

`CC(=O)OCC1OC(SC(c2ccccc2)(c2ccccc2)c2ccccc2)C(OC(C)=O)C(OC(C)=O)C1OC(C)=O` (stereo not drawn): the melting point is 178 to 180 °C.

The compound `CC(=O)OC1CCC2(C)C(=CCC3C2CCC2(C)C(n4ccnc4)=C(C=O)CC32)C1` (stereo not drawn) returned a melting point of 218 to 220 °C.

With `Cc1oc(-c2ccccc2)nc1COc1cncc(COc2ccc(CC(=O)O)cc2)c1`, the melting point lay in the range of 141 to 142 °C.

Turning to `COc1cc2c(cc1-c1cccnc1)-c1c(-c3cccs3)c3c(n1CC2)C(=O)N(C(C)C)CCN(C(=O)OC(C)(C)C)C3`, the melting point was in the range of 207 to 208 °C.

`O=CN1CCC(c2noc3cc(Cl)ccc23)CC1` yielded a melting point of 114 to 115 °C.

For `Cc1cc2c(cc1Cl)N(C(=O)Nc1ccncc1)CC2`, the melting point is more than 230 °C.

The compound `CSc1ncncc1C1c2cc(C#N)ccc2CC1(C)C` (stereo not drawn) had a melting point of 157 to 158 °C.

`CC1=CC(C)(C)Nc2ccc(O)cc21` displayed a melting point of 182 to 184 °C.

On to `O=C(C(=O)c1ccc(F)c(Br)c1)c1ccc(OCCF)cc1`, for which the melting point was 107 °C.

Turning to `CCCc1c(OCCCCc2ccc3c(Cl)c(OC)c(OC)c(Cl)c3c2)ccc(C(=O)O)c1O`, the melting point was 181 to 182 °C.

For `COc1c(OS(C)(=O)=O)ccc2[nH]ncc12`, the melting point was 130 to 131 °C.

The compound `COc1ccc(C2=NN(C3CCCC3)C(=O)[C@H]3CC=CC[C@@H]23)cc1OC1CCCC1` (relative stereo) showed a melting point of 144 to 145 °C.

Consider `c1ccc(-n2c(-c3ccc(OCCCN4CCCCC4)cc3)nc3ccccc32)cc1`, for which the melting point is 86 °C.

Compound `N#CC1(C(C(=O)O)C(=O)O)CCCCC1` returned a melting point of 99.9 °C.

Compound `CC(=O)OCC(=O)Nc1cc(-c2ccncc2)c[nH]c1=O` had a melting point of 267 to 290 °C.

Compound `N#Cc1c(Cl)nc2cscc2c1Cl` showed a melting point of 228 °C.

In turn, `O=C1CC(=CN2CCOCC2)Oc2c(O)cccc21` registered a melting point of 202 °C.

As to `COC(=O)c1cc(N=Nc2ccc(S(=O)(=O)Nc3ccccn3)cc2)ccc1OC(C)=O`, the melting point lay within 204 to 207 °C.

Compound `CCc1ccc(N2CCN(c3c(C)c4c(c(OC)c3C)OC(C)(C)C4)CC2)cc1` had a melting point of 157 to 160 °C.

In the case of `O=C(Cc1cccs1)N1C(=O)OC[C@@H]1Cc1ccccc1`, the melting point was in the range of 56 to 59 °C.

In the case of `CC(O)(CCN)c1ccc(-c2ccc(F)cc2)cc1` (stereo not drawn), the melting point was in the range of 144 to 146 °C.

`COCCOc1ccc(/C=C(\C)C(=O)NS(=O)(=O)C(F)(F)F)c(Oc2ncc(C(F)(F)F)cc2Cl)c1` registered a melting point of 146 to 147 °C.

Consider `COc1ccc(S(=O)(=O)N2CCc3cccc(-c4ccc(N(C)C)cc4)c32)cc1`, for which the melting point fell in the range of 178 to 180 °C.

On to `Cc1cc2c(s1)Nc1ccccc1N=C2N1CCN(C)CC1`, for which the melting point lay in the range of 190 to 193 °C.

Compound `CS(=O)c1cc(C(=O)O)c(Cl)cc1Cl` (stereo not drawn) returned a melting point of 200 to 201 °C.

Take `O=C(Nc1ccc(C(=O)c2ccccc2)cc1)c1cc(Cl)cc(Cl)c1`: the melting point lay in the range of 219 to 220 °C.

As to `CCOC(=O)Cn1c(-c2ccccn2)nc2cccnc21`, the melting point lay in the range of 109 to 111 °C.
